According to article PMC11997999, “Uncovering α-Selectivity for Liver X Receptor Agonists for Lipotoxic Cancer Therapies” (Journal of Medicinal Chemistry, 2025):

How the values were obtained:
Hep3B cells = assay: Cell viability analysis in Hep3B cells (CellTiter-Glo); format: cell-based, human; conditions: 5 d, 2 μM
Procedure: To determine the therapeutic efficacy of compound 40 in HCC cells, we next tested its effect on Hep3B cell viability in combination with the DFG-out Raf inhibitor sorafenib (2 μM).
For organoid treatment studies, digestion of organoids was performed using TrypLE Express (Gibco) supplemented with 100 μg/mL DNaseI and 10.5 μM Y-27632 dihydrochloride (Invitrogen) at 37 °C, and afterward, single-cells were plated in white 96 well plates (Sarstedt) in a mixture of 10% Matrigel (Growth Factor Reduced (GFR) Matrigel, Corning) in culture medium. Cell viability was determined after 5 days of treatment using the CellTiter-Glo 3D Cell Viability Assay Kit (Promega). Cell viability of Hep3B, AML12, and BNL CL.2 cells was determined after 5 days of treatment in white 96 well plates (Sarstedt) using the CellTiter-Glo 2.0 Cell Viability Assay Kit (Promega). AML12 and BNL CL.2 cells were also obtained from the American Type Culture Collection. The luminescence signal was measured using an […] M PLEX plate reader (Tecan) and the Tecan i-control software (v3.9.1). Sodium oleate (Selleckchem) was dissolved in methanol and added to cells at a final concentration of 200 μM.

LXRα = biological target: T1, LXRα (Homo sapiens, UniProt Q13133); assay: LXRα-specific LXRE-GFP reporter assay in Hep3B cells (NR1H2 knockout); format: cell-based; conditions: 48h of treatment, GFP by FACS
T1 construct: To measure the activity of the remaining isoform under treatment; endogenous in cells; host or cells: Hep3B (NR1H2 knockout, LXRE-GFP reporter)
T1 sequence (Q13133 1-447): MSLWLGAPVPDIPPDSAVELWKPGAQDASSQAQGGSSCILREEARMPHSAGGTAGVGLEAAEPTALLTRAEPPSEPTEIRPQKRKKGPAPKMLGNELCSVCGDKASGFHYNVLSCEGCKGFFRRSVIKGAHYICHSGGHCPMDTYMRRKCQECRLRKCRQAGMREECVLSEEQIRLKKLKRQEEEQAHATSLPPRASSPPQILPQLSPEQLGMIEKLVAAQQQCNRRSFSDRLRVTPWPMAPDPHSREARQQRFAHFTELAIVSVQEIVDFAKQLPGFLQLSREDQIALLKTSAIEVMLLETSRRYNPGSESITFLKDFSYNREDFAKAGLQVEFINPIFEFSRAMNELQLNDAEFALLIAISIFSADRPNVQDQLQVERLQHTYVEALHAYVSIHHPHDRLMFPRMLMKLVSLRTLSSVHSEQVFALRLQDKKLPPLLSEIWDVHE

LXRβ = biological target: T2, LXRβ (Homo sapiens, UniProt P55055); assay: LXRβ-specific LXRE-GFP reporter assay in Hep3B cells (NR1H3 knockout); format: cell-based; conditions: 48h of treatment, GFP by FACS
T2 construct: To measure the activity of the remaining isoform under treatment; endogenous in cells; host or cells: Hep3B (NR1H3 knockout, LXRE-GFP reporter)
T2 sequence (P55055 1-460): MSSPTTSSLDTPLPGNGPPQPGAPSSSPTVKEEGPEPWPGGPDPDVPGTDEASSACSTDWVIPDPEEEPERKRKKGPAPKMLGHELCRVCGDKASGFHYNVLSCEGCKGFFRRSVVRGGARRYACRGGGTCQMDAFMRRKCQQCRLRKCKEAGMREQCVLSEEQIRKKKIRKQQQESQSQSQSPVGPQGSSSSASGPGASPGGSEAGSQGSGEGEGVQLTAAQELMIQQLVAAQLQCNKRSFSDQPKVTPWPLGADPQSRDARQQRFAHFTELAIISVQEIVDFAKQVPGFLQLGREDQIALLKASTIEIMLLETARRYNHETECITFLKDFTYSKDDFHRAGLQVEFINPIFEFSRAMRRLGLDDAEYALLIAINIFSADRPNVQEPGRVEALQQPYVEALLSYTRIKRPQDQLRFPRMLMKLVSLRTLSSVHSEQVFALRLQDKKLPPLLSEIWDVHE

LXRα LBD (GST) = biological target: T3, LXRα LBD (GST) (Homo sapiens, UniProt Q13133); assay: Time-resolved LXR FRET assay (LanthaScreen TR-FRET LXRα Coactivator Assay Kit); format: biochemical; conditions: for EC50: 5 nM LXRα LBD (GST), read after 6 h, R^2 of fit given, read-out: TR-FRET activity (EC50) LXRα
T3 construct: 5 nM LXRα LBD (GST); 10 nM LXRβ LBD (GST); purchased ThermoFisher Scientific PV4655
T3 sequence (Q13133 209-447 limits assumed): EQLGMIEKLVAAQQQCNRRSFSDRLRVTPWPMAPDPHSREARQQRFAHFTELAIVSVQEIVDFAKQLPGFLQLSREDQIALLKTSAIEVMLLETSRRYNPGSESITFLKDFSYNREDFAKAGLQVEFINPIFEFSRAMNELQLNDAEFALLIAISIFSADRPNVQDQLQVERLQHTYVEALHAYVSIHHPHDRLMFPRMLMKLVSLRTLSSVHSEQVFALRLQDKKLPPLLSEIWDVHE
Procedure: (§1) The biochemical TR-FRET assays were performed using the LanthaScreen TR-FRET LXRα Coactivator Assay Kit, goat (ThermoFisher Scientific, PV4655), and the LanthaScreen TR-FRET LXRβ assay kit, goat (ThermoFisher Scientific, PV4658), according to the manufacturer’s instructions using the following concentrations: 5 nM LXRα LBD (GST); 10 nM LXRβ LBD (GST); 500 nM fluorescein-TRAP220/DRIP-2; 200 nM fluorescein-D22; 10 nM Tb anti-GST antibody. The TR-FRET signals were measured after 6 h using a TECAN SPARK multimode microplate reader with the following settings: first excitation wavelength: 360 nm (bandwidth 35 nm), first emission wavelength: 485 nm (bandwidth 20 nm); second excitation wavelength: 360 nm (bandwidth 35 nm), second emission wavelength: 535 nm (bandwidth 25 nm); integration time: 200 μs; lag time: 100 μs; settle time: 0 ms.

LXRβ LBD (GST) = biological target: T4, LXRβ LBD (GST) (Homo sapiens, UniProt P55055); assay: Time-resolved LXR FRET assay (LanthaScreen TR-FRET LXRβ assay kit); format: biochemical; conditions: for EC50: 10 nM LXRβ LBD (GST), read after 6 h, R^2 of fit given, read-out: TR-FRET activity (EC50) LXRβ
T4 construct: 5 nM LXRα LBD (GST); 10 nM LXRβ LBD (GST); purchased ThermoFisher Scientific PV4658
T4 sequence (P55055 222-460 limits assumed): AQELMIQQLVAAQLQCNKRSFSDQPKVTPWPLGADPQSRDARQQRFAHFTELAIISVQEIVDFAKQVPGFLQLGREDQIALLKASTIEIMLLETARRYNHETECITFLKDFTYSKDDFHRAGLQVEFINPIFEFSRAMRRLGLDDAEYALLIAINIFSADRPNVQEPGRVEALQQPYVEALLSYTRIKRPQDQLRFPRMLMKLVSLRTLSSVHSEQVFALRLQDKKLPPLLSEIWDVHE
Procedure: as §1

[1] = tested on: Akt1^Myr; Myc^OE HCC organoids; assay: Cell viability analysis in HCC organoids (CellTiter-Glo 3D); format: cell-based, murine; conditions: 5d, with 4 μM sorafenib
Text: Finally, we analyzed the efficacy of compound 40 in preclinical treatment studies in three-dimensional liver cancer organoid cultures. HCC organoids driven by myristoylated Akt1 and overexpressed Myc (Akt1^Myr; Myc^OE) were isolated from murine liver tumors and subjected to monotherapies of sorafenib, compound 40, or a combination thereof (Figure 7C). The therapeutic outcome was side-by-side compared with combinatorial therapies comprising the established agonists T0901317 (1) and GW3965 (2). […] Isolation of murine HCC organoid cultures was performed from liver tumors derived from C57BL/6 mice using established protocols.[26] The animal experiments were approved by committees of the regional authority of the state of Baden-Wuerttemberg (Regierungspraesidium Tuebingen, authorization number M15/18G) as appropriate. After digestion, the organoids were embedded in 100% Growth Factor Reduced (GFR) MatrigelTM (Corning) and cultured at 37 °C and 5% CO2 in HCC organoid medium supplemented with nicotinamide (10 mM), N-acetylcystein (1.25 mM), human HGF (50 ng/mL), human FGF-10 (100 ng/mL), human R-Spondin (0.5 μg/mL), forskolin (10 μM), A83- 01 (0.5 μM), murine Noggin (50 ng/mL), gastrin I (10 nM), human BMP-7 (25 ng/mL), human Wnt3a (100 ng/mL), B27 supplement (1×) and N2 supplement (1×). The cultures were split by mechanical dissociation every 3 to 4 days. […] Cell viability was determined after 5 days of treatment using the CellTiter-Glo 3D Cell Viability Assay Kit (Promega). Cell viability of Hep3B, AML12, and BNL CL.2 cells was determined after 5 days of treatment in white 96 well plates (Sarstedt) using the CellTiter-Glo 2.0 Cell Viability Assay Kit (Promega). […] The luminescence signal was measured using an […] M PLEX plate reader (Tecan) and the Tecan i-control software (v3.9.1). […]

[2] = statement made for both isoforms

EC50 (LXRα) [µM]	EC50 (LXRβ) [µM]	EC50 (LXRα LBD (GST)) [µM]	EC50 (LXRβ LBD (GST)) [µM]	TR-FRET activity on LXRα, in words (LXRα LBD (GST); [2])	TR-FRET activity on LXRβ, in words (LXRβ LBD (GST); [2])	SMILES	therapeutic effect on cell viability, sorafenib monotherapy (Hep3B cells)	therapeutic efficacy (cell viability) in combination with sorafenib [1]
–	–	–	–	–	–	CNC(=O)c1cc(Oc2ccc(NC(=O)Nc3ccc(Cl)c(C(F)(F)F)c3)cc2)ccn1 [sorafenib, reference compound]	only a low therapeutic effect	–
1.48	1.25	0.63	0.12	–	–	NC1CCN(c2ccc(NC3=C(c4ccccc4)C(=O)N(Cc4ccccc4)C3=O)cc2)CC1 [Compound 46, 3-((4-(4-Aminopiperidin-1-yl)phenyl)amino)-1-benzyl-4-phenyl-1H-pyrrole-2,5-dione]	–	–
–	–	–	–	–	–	O=S(=O)(c1ccccc1)N(CC(F)(F)F)c1ccc(C(O)(C(F)(F)F)C(F)(F)F)cc1 [T0901317 (1)]	–	dose-dependent response
0.019	0.113	0.036	0.156	–	–	CC(C)(C)N1C(=O)C(Nc2ccc(N3CCCCC3)cc2)=C(c2ccccc2)C1=O [Compound 51, 1-(tert-Butyl)-3-phenyl-4-((4-(piperidin-1-yl)phenyl)amino)-1H-pyrrole-2,5-dione]	–	–
–	–	> 3	> 3	no activity	no activity	COc1ccc(NC2=C(c3ccccc3)C(=O)NC2=O)cc1 [Compound 25, 3-((4-Methoxyphenyl)amino)-4-phenyl-1H-pyrrole-2,5-dione]	–	–
–	–	0.825	0.617	–	–	Cc1ccc(NC2=C(c3ccccc3)C(=O)N(Cc3ccccc3)C2=O)cc1 [Compound 32, 1-Benzyl-3-phenyl-4-(p-tolylamino)-1H-pyrrole-2,5-dione]	–	–
0.099	0.248	0.154	0.18	–	–	COc1ccc(NC2=C(c3ccccc3)C(=O)N(Cc3ccccc3)C2=O)cc1 [GSK3987 (3), 1-Benzyl-3-((4-methoxyphenyl)amino)-4-phenyl-1H-pyrrole-2,5-dione, reference compound]	–	–
–	–	0.39	0.231	–	–	COc1ccc(NC2=C(c3ccccc3)C(=O)N(Cc3ccncc3)C2=O)cc1 [Compound 21, 3-((4-Methoxyphenyl)amino)-4-phenyl-1-(pyridin-4-ylmethyl)-1H-pyrrole-2,5-dione]	–	–
–	–	1.25	0.283	–	–	O=C1C(Nc2ccc(N3CCNCC3)cc2)=C(c2ccccc2)C(=O)N1Cc1ccccc1 [Compound 43, 1-Benzyl-3-phenyl-4-((4-(piperazin-1-yl)phenyl)amino)-1H-pyrrole-2,5-dione]	–	–
–	–	0.245	0.232	–	–	COc1ccc(NC2=C(c3ccccc3)C(=O)N(C(C)(C)C)C2=O)cc1 [Compound 24, 1-(tert-Butyl)-3-((4-methoxyphenyl)amino)-4-phenyl-1H-pyrrole-2,5-dione]	–	–

SMILES	EC50 (LXRα) [µM]	EC50 (LXRβ) [µM]	EC50 (LXRα LBD (GST)) [µM]	EC50 (LXRβ LBD (GST)) [µM]	TR-FRET activity on LXRα, in words (LXRα LBD (GST); [2])	TR-FRET activity on LXRβ, in words (LXRβ LBD (GST); [2])	therapeutic effect on cell viability, sorafenib monotherapy (Hep3B cells)	therapeutic efficacy (cell viability) in combination with sorafenib [1]
O=C(O)Cc1cccc(OCCCN(Cc2cccc(C(F)(F)F)c2Cl)CC(c2ccccc2)c2ccccc2)c1 [GW3965 (2), reference compound]	0.32	0.04	0.087	0.024	–	–	–	dose-dependent response
